Laboratory results from patent US8431525B2, “Coelenteramide analogs” (JNC Corporation, priority 2009, dated 2013).

What was measured:
[1] = Fluorescence spectrum and fluorescence quantum yield of CTMD analogs at 750 nM (Example 1); type: physicochemical; details: for λmax (PB)/nm / λmax (MeOH)/nm: fluorescence emission; for λmax (MeOH)/nm / Fluorescence quantum yield (MeOH): methanol; for λmax (MeOH)/nm / Fluorescence quantum yield (MeOH) / fluorescence spectrum detected: 750 nM; for fluorescence properties compared with known CTMD (c-4) or h-CTMD (c-13): from TABLE 1
Description: (§1) The fluorescence quantum yield of each CTMD analog synthesized was determined by the following procedure. The fluorescence spectrum was measured at 25° C. using a spectrofluorometer FP-6500 of JASCO (JASCO Corp., Tokyo). Specifically, the CTMD analog was dissolved in methanol (MeOH) or in 67 mM phosphate buffer (PB) (pH 7.4) at a final concentration of 750 nM using a quartz cell (light path length of 10 mm). Measurement was performed 3 times at the excited wavelength of 330 nm, emission/excitation band width of 3 nm, response of 0.5 second and scanning rate of 100 nm/min. The average was taken as the fluorescence spectrum of the compound. The fluorescence quantum yield was determined after the spectrum was corrected.
Quinine sulfate was used as a standard for determining the fluorescence quantum yield. After quinine sulfate (Wako Pure Chemical Industries) was dissolved in 0.1N sulfuric acid aqueous solution, measurement was performed at the excitation light of 366 nm under the conditions for fluorescence measurements described above. The relative fluorescence quantum yield (fluorescence intensity) of the compound was calculated relative to the quantum yield of quinine sulfate as being 0.55.

[2] = Fluorescence spectra at a final concentration of 30 μM (Example 2); type: physicochemical; details: excited at 330 nm; for Fluorescence Intensity (MeOH) / λmax (MeOH)/nm: methanol, 30 μM; for Fluorescence Intensity (PB) / λmax (PB)/nm: phosphate buffer pH 7.4, 30 μM
Description: as §1
(§2) The fluorescence quantum yield determined in EXAMPLE 1 was estimated by measuring the fluorescence spectra when the final concentration of coelenteramide analogs was 750 nM. When the final concentration was 750 nM as in EXAMPLE 1, any fluorescence spectrum was not detected for c-14, c-31 and c-36 both in methanol and in a phosphate buffer, and not detected for c-25 in a phosphate buffer, in coelenteramide analogs of the present invention (n.d.: not detected). With respect to c-14, c-31, c-25 and c-36 that no fluorescence spectrum was detected, fluorescence spectra were measured under the same conditions as in EXAMPLE 1 except that the final concentration of these coelenteramide analogs was 30 μM. In a similar method, the fluorescence spectrum for C-4 was also measured at a final concentration of 30 μM. The fluorescence spectrum also for […] was measured in 50 mM Tris-HCl (pH 7.6) containing 10 mM CaCl2 under the same conditions as in EXAMPLE 1 except that the final concentration was 18 μM.

[3] = Fluorescence spectrum in 50 mM Tris-HCl (pH 7.6) containing 10 mM CaCl2 at 18 μM; type: physicochemical; details: 10 mM CaCl2, 18 μM
Description: as §2
The fluorescence spectrum of c-38 was measured at 25° C. using a JASCO spectrofluorometer FP-6500 (JASCO Corp., Tokyo). Specifically, c-38 was dissolved in 50 mM Tris-HCl (pH 7.6) containing 10 mM CaCl2 at a final concentration of 18 μM using a quartz cell (light path length of 10 mm). […] The average was taken as the fluorescence spectrum.

[4] = 0.1N H2SO4, ex. 366 nm; value taken as reference; cited from earlier work
[5] = 67 mM phosphate buffer pH 7.4, 750 nM, 25° C., excited at 330 nm
[6] = 25° C., excited at 330 nm, relative to quinine sulfate 0.55
[7] = both in methanol and in a phosphate buffer

SMILES	Fluorescence Intensity (MeOH) [2]	λmax (MeOH)/nm [2] [nm]	Fluorescence Intensity (PB) [2]	λmax (PB)/nm [2] [nm]	fluorescence spectrum detected [1, 7]	fluorescence properties compared with known CTMD (c-4) or h-CTMD (c-13) [1]	melting point	other results
O=C(Cc1ccc(O)cc1)Nc1ncc(-c2ccc(O)cc2)nc1Cc1ccccc1 [c-4, 3-benzyl-5-(4-hydroxyphenyl)-2-[(4-hydroxyphenyl)acetylamino]pyrazine, reference compound]	80.0	428.0	1.7	444.5				Fluorescence quantum yield (PB) ([1]; 67 mM phosphate buffer pH 7.4, 750 nM, 25° C., excited at 330 nm, relative to quinine sulfate 0.55): 0.001; λmax (PB)/nm [1, 5]: 451 nm; λmax (MeOH)/nm ([1]; 25° C., excited at 330 nm): 427.5 nm; Fluorescence quantum yield (MeOH) [1, 6]: 0.012
CC(=O)Nc1ncc(-c2ccc(O)cc2)nc1Cc1ccccc1 [c-25, 2-Acetylamino-3-benzyl-5-(4-hydroxyphenyl)pyrazine]			2.0	446.0				fluorescence spectrum detected ([1]; in a phosphate buffer): not detected; λmax (PB)/nm [1, 5]: 446.5 nm; λmax (MeOH)/nm ([1]; 25° C., excited at 330 nm): 425.5 nm; Fluorescence quantum yield (MeOH) [1, 6]: 0.009
CC(=O)Oc1ccc(-c2cnc(NC(=S)Cc3ccccc3)c(Cc3ccccc3)n2)cc1 [c-31, 5-(4-Acetoxyphenyl)-3-benzyl-2-(phenylthioacetylamino)pyrazine]	5.2	422.0	1.7	413.5	not detected	different fluorescence properties	143 to 145 °C	
C=C[C@H]1CN2CC[C@H]1C[C@H]2[C@H](O)c1ccnc2ccc(OC)cc12.C=C[C@H]1CN2CC[C@H]1C[C@H]2[C@H](O)c1ccnc2ccc(OC)cc12.O=S(=O)(O)O [quinine, quinine sulfate, reference compound]								λmax of the standard ([1]; 0.1N H2SO4, ex. 366 nm): 451 nm; Fluorescence quantum yield of the standard [4]: 0.55

Continued, in another order:

Fluorescence Intensity (MeOH) [2]	λmax (MeOH)/nm [2] [nm]	Fluorescence Intensity (PB) [2]	λmax (PB)/nm [2] [nm]	fluorescence spectrum detected [1, 7]	fluorescence properties compared with known CTMD (c-4) or h-CTMD (c-13) [1]	melting point	SMILES	other results
6.5	428.0	1.4	435.5	not detected	different fluorescence properties	195 to 198 °C	Oc1ccc(-c2cnc(NC(=S)Cc3ccccc3)c(Cc3ccccc3)n2)cc1 [c-14, 3-Benzyl-5-(4-hydroxyphenyl)-2-(phenylthioacetylamino)pyrazine]	
3.6	433.0	0.8	433.5	not detected	different fluorescence properties	176 to 177.5 °C (dec.)	O=[N+]([O-])c1ccc(S(=O)(=O)Nc2ncc(-c3ccc(O)cc3)nc2Cc2ccccc2)cc1 [c-36, 3-Benzyl-5-(4-hydroxyphenyl)-2-[(4-nitrophenyl)sulfonylamino]pyrazine]	
						194.5 to 196.5 °C	O=S(=O)(Cc1ccc(O)cc1)Nc1ncc(-c2ccc(O)cc2)nc1Cc1ccccc1 [c-38, 3-Benzyl-2-(4-hydroxybenzyl)sulfonylamino-5-(4-hydroxyphenyl)pyrazine]	fluorescence capacity ([3]; excited at 330 nm, FIG. 4): has the fluorescence capacity
						101 to 103 °C	Oc1ccc(CC(=S)Nc2ncc(-c3ccc(O)cc3)nc2Cc2ccccc2)cc1 [c-45, 3-Benzyl-5-(4-hydroxyphenyl)-2-[(4-hydroxyphenyl)thioacetylamino]pyrazine]	fluorescence ability in an aqueous solution [3]: had the fluorescence ability
